Measurements: US9309196B2, “Indole derivatives and process for their preparation” (Ramot at Tel-Aviv University Ltd., priority 2010, dated 2016)

Molecular target: T1, monomeric Aβ1-42 (Homo sapiens, UniProt P05067)
T1 construct: Aβ1-42 (#60-0-80, American Peptide, Sunnyvale, Calif. USA); purchased American Peptide, Sunnyvale, Calif; USA #60-0-80
Experiment: Surface plasmon resonance (SPR) binding of compounds to immobilized Aβ1-42 monomers (Biacore X100)
Settings: compounds 0.1 nM to 300 nM, 25° C., steady-state analysis, repeated tests
Description: Aβ monomers were covalently coupled to one flow cell of CM7 sensor chips (GE Lifesciences, Uppsala, Sweden) via primary amines using the Amine Coupling Kit (GE Lifesciences, Uppsala, Sweden). As a control, ethanolamine was immobilized on the reference channel. […] One RU represents about 1 pg/mm^2 of the analytes on the surface matrix of the sensor chip.
Concentrations were tested in duplicate.
The RUs elicited by the compound injected into the ethanolamine control flow cell was set as reference response and subtracted from the RUs elicited by the same compound injected to the Aβ saturated flow cell. The relationships between each RU obtained at the steady state of binding (plateau of the binding curve) and each concentration of the compound were plotted.
After the analyte injection was stopped, HBS-EP buffer was flowed over the chip for 180 s to allow the bound analyte to dissociate from the immobilized Aβ and the dissociation curves were obtained.
The dissociation equilibrium constant KD of the analyte to the immobilized Aβ was determined from the steady-state levels estimating the maximum RU Rmax and calculating the KD as the concentration of the compound that elicited one-half of the Rmax.

T1 sequence (P05067 672-713 limits assumed): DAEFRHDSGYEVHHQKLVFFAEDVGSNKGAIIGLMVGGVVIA

First: CC(C)(/C=C/[C@H](N)Cc1c[nH]c2ccccc12)C(N)=O [Example 3, (E)-(R)-5-Amino-6-(1H-indol-3-yl)-2,2-dimethyl-hex-3-enoic acid amide]
Second: CNC(=O)C(C)(C)/C=C/[C@H](N)Cc1c[nH]c2ccccc12 [Example 4, (E)-(R)-5-Amino-6-(1H-indol-3-yl)-2,2-dimethyl-hex-3-enoic-acid-methylamide]
The IC50 of the first is 14-fold lower: 0.5 nM for the first, 6.8 nM for the second.

With `CC(=O)N[C@@H](/C=C/C(C)(C)C(=O)O)Cc1c[nH]c2ccccc12` [Example 5, (E)-(R)-5-Acetylamino-6-(1H-indol-3-yl)-2,2-dimethyl-hex-3-enoic-acid] the IC50 was 42.1 nM.
